Results reported in EP0114128A1, “3-Amino-2-oxo-azetidine derivatives containing in position 1 a nitrogen heterocyclic radical, process for their preparation, their use as therapeutical agents and intermediates for their preparation” (priority 1983, dated 1984).
Converted amounts (≈) assume the structure as drawn. Like-named read-outs stand apart in the source and are kept apart here.

How the values were obtained:
Experiment in all cases: In vitro activity, dilution method in liquid medium (MIC)
Assay type in all cases: cell-based
[1] = tested on: Enterobacter cloacae 1321 E; settings: read-out: concentrations minimales inhibitrices (C. M. I.)
Method: (§1) Etude pharmacologiaue des produits de l'invention. Activité in vitro, méthode des dilutions en milieu liquide.
(§2) On prépare une série de tubes dans lesquels on répartit une même quantité de milieu nutritif stérile. On distribue dans chaque tube des quantités croissantes du produit à étudier, puis chaque tube est ensemencé avec une souche bactérienne. Après incubation de vingt-quatre ou quarante-huit heures à l'étuve à 37°C, l'inhibition de la croissance est appréciée par transillumination ce qui permet de déterminer les concentrations minimales inhibitrices (C. M. I.) exprimées en µg/cm3.

[2] = tested on: Escherichia Coli 078; settings: read-out: concentrations minimales inhibitrices (C. M. I.)
Method: as §1, §2

[3] = tested on: Escherichia Coli 1507 E; settings: COLI1507E, read-out: concentrations minimales inhibitrices (C. M. I.)
Method: as §1, §2

[4] = tested on: Escherichia Coli 1894; settings: read-out: concentrations minimales inhibitrices (C. M. I.)
Method: as §1, §2

[5] = tested on: Escherichia Coli DC0; settings: read-out: concentrations minimales inhibitrices (C. M. I.)
Method: as §1, §2

[6] = tested on: Escherichia Coli DC2; settings: read-out: concentrations minimales inhibitrices (C. M. I.)
Method: as §1, §2

[7] = tested on: Escherichia Coli TEM; settings: read-out: concentrations minimales inhibitrices (C. M. I.)
Method: as §1, §2

[8] = tested on: Klebsiella Aeruginosa 1522 E; settings: read-out: concentrations minimales inhibitrices (C. M. I.)
Method: as §1, §2

[9] = tested on: Klebsiella pneumonae 52145; settings: read-out: concentrations minimales inhibitrices (C. M. I.)
Method: as §1, §2

[10] = tested on: Proteus mirabilis A 235; settings: read-out: concentrations minimales inhibitrices (C. M. I.)
Method: as §1, §2

[11] = tested on: Proteus vulgaris A 232; settings: read-out: concentrations minimales inhibitrices (C. M. I.)
Method: as §1, §2

[12] = tested on: Providencia DU 48; settings: read-out: concentrations minimales inhibitrices (C. M. I.)
Method: as §1, §2

[13] = tested on: Pseudomonas aeruginosa 1771 m; settings: read-out: concentrations minimales inhibitrices (C. M. I.)
Method: as §1, §2

[14] = tested on: Salmonella typhimurium MZ 11; settings: Salmonella enterica, read-out: concentrations minimales inhibitrices (C. M. I.)
Method: as §1, §2

[15] = tested on: Serratia marcesceus 2532; settings: read-out: concentrations minimales inhibitrices (C. M. I.)
Method: as §1, §2

[16] = COLI078, 24 H incubation at 37°C
[17] = COLI078, 48 H incubation at 37°C
[18] = COLI1894, 24 H incubation at 37°C
[19] = COLI1894, 48 H incubation at 37°C
[20] = COLIDC0, 24 H incubation at 37°C
[21] = COLIDC0, 48 H incubation at 37°C
[22] = COLIDC2, 24 H incubation at 37°C
[23] = COLIDC2, 48 H incubation at 37°C

Compound | MIC ([1]; 24 H incubation at 37°C) [µg/mL] | MIC ([1]; 48 H incubation at 37°C) [µg/mL] | MIC [2, 16] [µg/mL] | MIC [2, 17] [µg/mL] | MIC ([3]; 24 H incubation at 37°C) [µg/mL] | MIC ([3]; 48 H incubation at 37°C) [µg/mL] | MIC [4, 18] [µg/mL] | MIC [4, 19] [µg/mL] | MIC [5, 20] [µg/mL] | MIC [5, 21] [µg/mL] | MIC [6, 22] [µg/mL] | MIC [6, 23] [µg/mL] | MIC ([7]; 24 h) [µg/mL] | MIC ([7]; 48 h) [µg/mL] | MIC ([8]; 24 H incubation at 37°C) [µg/mL] | MIC ([8]; 48 H incubation at 37°C) [µg/mL] | MIC ([9]; 24 H incubation at 37°C) [µg/mL] | MIC ([9]; 48 H incubation at 37°C) [µg/mL] | MIC ([10]; A235, 24 H incubation at 37°C) [µg/mL] | MIC ([10]; A235, 48 H incubation at 37°C) [µg/mL] | also measured
C[C@@H]1[C@H](NC(=O)/C(=N\OCC(=O)O)c2csc(N)n2)C(=O)N1c1nn[nH]n1 (racemic) [Prod. ex. 6, (3SR, 4RS) 3-//2-(2-aminothiazol-4-yl) 2/-(carboxyméthoxy) imino/acétyl/amino/ 4-méthyl 1-(1H-tétrazol-5-yl) 2-azétidinone isomère syn] | 0.3 (≈ 0.759 µM) | 0.6 (≈ 1.52 µM) | 0.3 (≈ 0.759 µM) | 0.3 (≈ 0.759 µM) | 0.6 (≈ 1.52 µM) | 0.6 (≈ 1.52 µM) | 0.6 (≈ 1.52 µM) | 0.6 (≈ 1.52 µM) | 0.6 (≈ 1.52 µM) | 0.6 (≈ 1.52 µM) | 0.3 (≈ 0.759 µM) | 0.3 (≈ 0.759 µM) | 0.6 (≈ 1.52 µM) | 0.6 (≈ 1.52 µM) | 0.6 (≈ 1.52 µM) | 0.6 (≈ 1.52 µM) | 2.5 (≈ 6.32 µM) | 2.5 (≈ 6.32 µM) | 0.15 (≈ 0.379 µM) | 0.15 (≈ 0.379 µM) | MIC ([11]; A232, 24 H incubation at 37°C): 0.08 µg/mL (≈ 0.202 µM); MIC ([11]; A232, 48 H incubation at 37°C): 0.15 µg/mL (≈ 0.379 µM); MIC ([12]; DU48, 24 H incubation at 37°C): 0.6 µg/mL (≈ 1.52 µM); MIC ([12]; DU48, 48 H incubation at 37°C): 0.6 µg/mL (≈ 1.52 µM); MIC ([13]; 24 H incubation at 37°C): 2.5 µg/mL (≈ 6.32 µM); MIC ([13]; 48 H incubation at 37°C): 5 µg/mL (≈ 12.6 µM); MIC ([14]; 24 H incubation at 37°C): 0.6 µg/mL (≈ 1.52 µM); MIC ([14]; 48 H incubation at 37°C): 0.6 µg/mL (≈ 1.52 µM); MIC ([15]; 24 H incubation at 37°C): 2.5 µg/mL (≈ 6.32 µM); MIC ([15]; 48 H incubation at 37°C): 5 µg/mL (≈ 12.6 µM)
CO/N=C(\C(=O)N[C@@H]1C(=O)N(c2nn[nH]n2)[C@H]1C)c1csc(N)n1 (racemic) [Prod. ex. 2, (3SR, 4SR) 3-//2-(2-aminothiazol-4-yl) 2-méthoxyimino acétyl/ amino/ 4-méthyl 1-(1H-tétrazol-5-yl) 2-azétidinone] | 1.2 (≈ 3.42 µM) | 1.2 (≈ 3.42 µM) | 0.6 (≈ 1.71 µM) | 0.6 (≈ 1.71 µM) | 0.6 (≈ 1.71 µM) | 0.6 (≈ 1.71 µM) | 0.3 (≈ 0.854 µM) | 0.3 (≈ 0.854 µM) | 2.5 (≈ 7.12 µM) | 2.5 (≈ 7.12 µM) | 0.6 (≈ 1.71 µM) | 1.2 (≈ 3.42 µM) | 10 (≈ 28.5 µM) | 10 (≈ 28.5 µM) | 0.6 (≈ 1.71 µM) | 0.6 (≈ 1.71 µM) | 2.5 (≈ 7.12 µM) | 2.5 (≈ 7.12 µM) | 0.6 (≈ 1.71 µM) | 1.2 (≈ 3.42 µM) | MIC ([11]; A232, 24 H incubation at 37°C): 1.2 µg/mL (≈ 3.42 µM); MIC ([11]; A232, 48 H incubation at 37°C): 2.5 µg/mL (≈ 7.12 µM); MIC ([12]; DU48, 24 H incubation at 37°C): 1.2 µg/mL (≈ 3.42 µM); MIC ([12]; DU48, 48 H incubation at 37°C): 1.2 µg/mL (≈ 3.42 µM); MIC ([13]; 24 H incubation at 37°C): ≤ 5 µg/mL; MIC ([13]; 48 H incubation at 37°C): ≤ 5 µg/mL; MIC ([14]; 24 H incubation at 37°C): 1.2 µg/mL (≈ 3.42 µM); MIC ([14]; 48 H incubation at 37°C): 2.5 µg/mL (≈ 7.12 µM); MIC ([15]; 24 H incubation at 37°C): 20 µg/mL (≈ 56.9 µM); MIC ([15]; 48 H incubation at 37°C): > 40 µg/mL
CO/N=C(\C(=O)N[C@@H]1C(=O)N(c2nn[nH]n2)[C@@H]1CF)c1csc(N)n1 (racemic) [Prod. ex. 11, (3SR,4SR) 3-//2-(2-aminothiazol-4-yl) 2-méthoxyimino acétyl/ amino/ 4-(fluorométhyl) 1-(1-H-tétrazol-5-yl) 2-azétidinone] | 0.3 (≈ 0.812 µM) | 0.3 (≈ 0.812 µM) | 0.15 (≈ 0.406 µM) | 0.15 (≈ 0.406 µM) | 0.08 (≈ 0.217 µM) | 0.08 (≈ 0.217 µM) | ≤ 0.04 | ≤ 0.04 | 0.6 (≈ 1.62 µM) | 0.6 (≈ 1.62 µM) | 0.15 (≈ 0.406 µM) | 0.15 (≈ 0.406 µM) | 0.6 (≈ 1.62 µM) | 0.6 (≈ 1.62 µM) | 0.6 (≈ 1.62 µM) | 0.6 (≈ 1.62 µM) | 1.2 (≈ 3.25 µM) | 1.2 (≈ 3.25 µM) | 0.15 (≈ 0.406 µM) | 0.15 (≈ 0.406 µM) | MIC ([11]; A232, 24 H incubation at 37°C): 0.15 µg/mL (≈ 0.406 µM); MIC ([11]; A232, 48 H incubation at 37°C): 0.15 µg/mL (≈ 0.406 µM); MIC ([12]; DU48, 24 H incubation at 37°C): 1.2 µg/mL (≈ 3.25 µM); MIC ([12]; DU48, 48 H incubation at 37°C): 1.2 µg/mL (≈ 3.25 µM); MIC ([14]; 24 H incubation at 37°C): 0.3 µg/mL (≈ 0.812 µM); MIC ([14]; 48 H incubation at 37°C): 0.3 µg/mL (≈ 0.812 µM); MIC ([15]; 24 H incubation at 37°C): 10 µg/mL (≈ 27.1 µM); MIC ([15]; 48 H incubation at 37°C): 10 µg/mL (≈ 27.1 µM)
